Source: BindingDB's records for doi:10.1002/cbic.201402650 (Goethe Universität Frankfurt, 2015)

Target: T1, Juvenile hormone epoxide hydrolase (Manduca sexta, UniProt Q25489)
T1 sequence (Q25489 whole entry): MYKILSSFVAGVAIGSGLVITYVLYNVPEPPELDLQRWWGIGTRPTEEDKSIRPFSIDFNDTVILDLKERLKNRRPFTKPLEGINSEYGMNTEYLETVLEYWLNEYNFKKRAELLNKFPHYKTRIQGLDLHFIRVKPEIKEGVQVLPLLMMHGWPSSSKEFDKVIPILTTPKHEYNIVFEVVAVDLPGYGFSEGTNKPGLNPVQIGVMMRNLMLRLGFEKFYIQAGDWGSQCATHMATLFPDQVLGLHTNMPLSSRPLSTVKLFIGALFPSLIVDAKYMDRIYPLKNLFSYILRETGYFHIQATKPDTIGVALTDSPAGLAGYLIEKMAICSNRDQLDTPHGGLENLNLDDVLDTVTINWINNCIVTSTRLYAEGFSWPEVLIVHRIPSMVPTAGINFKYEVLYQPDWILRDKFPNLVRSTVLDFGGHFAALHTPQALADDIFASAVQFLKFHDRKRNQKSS
Test: Quantitative Reverse Transcriptase Assay
Excerpt: We used quantitative reverse-transcriptase PCR to measure the RNA levels of certain AMP genes (lysozyme, gallerimycin, moricin and cecropin) in caterpillars of M. sexta and the greater waxmoth G. mellonella challenged with Serratia entomophila or Salmonella enterica, respectively, following injection of different urea lipid compounds.

| Compound | IC50 [µM] |
| --- | --- |
| CC(C)CCCCCCCCNC(N)=O [N-(9-Methyldecyl) urea (2)] | > 100 |
| CC(C)CCCCCCCCCCNC(N)=O [N-(11-Methyldodecyl) urea (5)] | > 100 |
| CCCCCCCCCCCCNC(N)=O [N-Dodecyl urea (6)] | > 100 |
| CNC(=O)NCCCCCCCCC(C)C [N-Methyl-N -(9-methyldecyl) urea (1)] | 6.5 |
| CNC(=O)NCCCCCCCCCCC(C)C [N-Methyl-N -(11-methyldodecyl) urea (3)] | 30 |
| CCCCCCCCCCCCNC(=O)NC [N-Methyl-N -dodecyl urea (4)] | 10.7 |
| CCCCCCCCCNC(=O)NC [N-Methyl-N -nonyl urea (11)] | > 100 |
| CCCCCCCCCCCCCNC(=O)NC [N-Methyl-N -tridecyl urea (9)] | 10 |
| CCCCCCCCCCCCCNC(N)=O [N-Tridecyl urea (10)] | > 100 |
| CCCCCCCCCCCNC(=O)NC [N-methyl-N -undecyl urea (7)] | 4.3 |
| CCCCCCCCCNC(N)=O [N-nonyl urea (12)] | > 100 |
| CCCCCCCCCCCCNC(=O)NCC(C)C [US8815951, 478] | 2.3 |
